Test results published in US20100129370A1, “Trefoil Factors and Methods of Treating Proliferation Disorders Using Same” (priority 2004, published 2010).

Key:
Assay type in all cases: cell-based, human
[1] = system: TFF3 promoter; experiment: TFF3 promoter activity in MCF-7 cells treated with E2 or TAM; settings: 24 hours treatment, FIG. 7B, p<0.05
Description: (§1) It was of interest to determine if the expression of TFF3 is related to estrogen receptor status. MCF7 cells were cultured in phenol red free RPMI 1640 containing 10% dextran coated charcoal stripped fetal bovine serum in a 6 well plate for 24 hours. Then the cells were changed to treatment media containing 10 nM E2 or 1 μM TAM and cultured for 24 hours in the same. Untreated cells cultured in serum free media acted as controls.

[2] = system: MCF-7-TamR cells; experiment: Cell morphology assay, MCF-7-TamR cells; settings: single agent, 48 h, FIG. 19
Description: Tamoxifen resistant MCF-7-Tam^R cells were plated at a concentration of 5×10^3 cells/well in 96-well plates in 100 μl of phenol red free RPMI 1640 medium containing dextran coated charcoal stripped 10% FBS. The plates were incubated at 37° C. for 24 h to allow the cells to reattach and re-equilibrate. Without removing any medium, anti-TFF3 antibody and/or tamoxifen were then added at twice the final concentration in a volume of 100 μl of the culture media. After 48 h images of cells were taken at 10× magnification under phase contrast microscope (Olympus IX70).
Cells were plated in phenol red free RPMI 1640 medium containing dextran coated charcoal stripped 10% FBS at 5×10^3 cells/100 μl/well in 96-well plates. After 24 hours incubation, anti-TFF3 antibody and/or tamoxifen (TAM) were then added at twice the final concentration in a volume of 100 μl. The cells were then taken photos using Olympus phase contrast microscope under 10× magnification. CK-09 is the pre-immune sera for the rabbit polyclonal antibodies of human TFF3 (anti-09).

[3] = system: TFF1; experiment: TFF1 transcript levels (RT-PCR) in MCF7 cells treated with E2 or tamoxifen; settings: 10 nM E2 or 1 μM TAM, 24 hours, FIG. 9A
Description: as §1, with “MCF7 cells produce endogenous levels” for “It was”, “TFF1.” for “interest to determine if the expression of TFF3 is related to estrogen receptor status.”

[4] = system: TFF3; experiment: TFF3 transcript levels (RT-PCR) in MCF7 cells treated with E2 or TAM; settings: 10 nM E2 or 1 μM TAM, 24 hours, FIG. 7A
Description: RT-PCR was performed in a final volume of […] containing 0.2 μg of mRNA template, 0.6 μM primers, […] of enzyme mix, 400 μM of each dNTP, 10 reaction buffer, and 10 Q-Solution by use of the Qiagen One-step RT-PCR kit. RNA template was reverse-transcribed into cDNA for 30 min at 50° C.; Hotstart TaqDNA polymerase was activated by heating for 15 min at 95° C.; the denatured cDNA templates were amplified by the following cycles: 94° C./30 s, 55° C./30 s, and 72° C./60 s. A final extension was performed for 10 min at 72° C. In order to compare the PCR products semiquantitatively, 15-40 cycles of PCR (annealing temperature 55° C.) were performed to determine the linearity of the PCR amplification, and the amplified β-actin cDNA served as an internal control for cDNA quantity and quality. All RNA samples were treated with DNase I to avoid genomic DNA contaminations.
as §1

[5] = system: TFF1 promoter; experiment: TFF1 promoter activity in MCF7 cells treated with E2 or TAM; settings: 24 hours treatment, FIG. 9B
Description: as §1, with “MCF7 cells produce endogenous levels” for “It was”, “TFF1.” for “interest to determine if the expression of TFF3 is related to estrogen receptor status.”

[6] = system: MCF-TFF3 cells; experiment: Soft agar colony formation in estrogen-depleted media with estrogen added; settings: estrogen added to estrogen-depleted media, MCF-TFF3, FIG. 10B
Description: (§2) MCF7-VECTOR and MCF7-TFF3 cells were cultured in phenol red free RPMI 1640 media with 10% dextran coated charcoal stripped fetal bovine serum.

[7] = system: MCF7-VECTOR and MCF7-TFF3 cells; experiment: Total cell number assay in estrogen-depleted media with estrogen supplement; settings: estrogen supplemented to estrogen-depleted media, FIG. 10A
Description: as §2

[8] = system: CEACAM6 gene; experiment: CEACAM6 luciferase reporter assay in MCF-7 cells; settings: MCF-7 co-transfected with expression plasmid, 36 hours post transfection

Molecule | TFF3 promoter activity [1] | cell morphology / cell death [2] | transcript levels of TFF1 [3] | transcript levels of TFF3 [4] | TFF1 promoter activity [5] | soft agar colony numbers [6] | total cell number [7] | stimulation of CEACAM6 expression compared with control vector [8]
CC/C(=C(\c1ccccc1)c1ccc(OCCN(C)C)cc1)c1ccccc1 [TAM, tamoxifen] | increase | look healthy and similar to untreated control | very significant increase | significantly but not as high transcript levels | increase |  |  | 
C[C@]12CC[C@@H]3c4ccc(O)cc4CC[C@H]3[C@@H]1CC[C@@H]2O [E2, estradiol] | increase |  | very significant increase | very high increased transcript levels | increase | further increases the colony numbers significantly | brings back the total cell number to the control cells | 
TFF3: wild type human TFF3 expressed from plasmid in MCF-7 cells (EEYVGLSANQCAVPAKDRVDCGYPHVTPKECNNRGCCFDSRIPGVPWCFKPLQEAECTF) |  |  |  |  |  |  |  | two fold
